Our source for the AUC0-3 hr and Average plasma concentration values is patent publication US20040176350A1, “Carbapenem compound” (priority 2001, published 2004).

A short description of this data set: oral absorption test in rats: plasma concentration of meropenem produced by hydrolysis, by HPLC. The data set is classed as in vivo. The note with it: 20 mg/kg oral, cilastatin 50 mg/kg pre-administered. Here is the method:
An enzyme inhibitor (cilastatin) (50 mg/kg) was pre-administered to rats (3 per group) and the compound of the present invention (compound of Example 1, 20 mg/kg) was orally administered. The plasma concentration of meropenem produced by hydrolysis was measure at 0.125, 0.25, 0.5, 1.0, 1.5, 2.0 and 3.0 hr by HPLC and the area under plasma concentration-time curve (AUC) was determined.

As to `CCCC(=O)OCOC(=O)N1C[C@@H](SC2=C(C(=O)OCOC(=O)C(C)(C)C)N3C(=O)[C@H]([C@@H](C)O)[C@H]3[C@H]2C)C[C@H]1C(=O)N(C)C` [Example 1, pivaloyloxymethyl (1R,5S,6S)-2-[(3S,5S)-(5-N,N-dimethylaminocarbonyl-1-butyryloxymethyloxycarbonyl)-pyrrolidin-3-ylthio]-6-[(1R)-1-hydroxyethyl]-1-methylcarbapen-2-em-3-carboxylate], the AUC0-3 hr (area under plasma concentration-time curve of meropenem) amounted to 5060 ng·h/mL. Further, the Average plasma concentration is, setting by setting: (meropenem in plasma at 0.125 hr) 0.62 µg/mL; (meropenem in plasma at 0.25 hr) 1.31 µg/mL; (meropenem in plasma at 0.5 hr) 2.31 µg/mL; (meropenem in plasma at 1.0 hr) 2.59 µg/mL; (meropenem in plasma at 1.5 hr) 2.27 µg/mL; (meropenem in plasma at 2.0 hr) 1.56 µg/mL. Besides, the Average plasma concentration (meropenem in plasma at 3.0 hr) came out at 0.55 µg/mL.
